Assay results taken from ChEMBL document CHEMBL1201862, “PubChem BioAssay data set” (2004).
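Cells were grown in 96-well plates and exposed to each compound for 48 hours at five concentrations; endpoints were interpolated linearly between bracketing concentrations, or set to the highest concentration if not reached. GI50: concentration for 50% inhibition of growth.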 The source made the active and inactive calls. Rule as the data show it: active = GI50 up to about 1.1 µM and inactive = higher.

Key:
Experiment in all cases: growth of human tumour cells (NCI), 48 h
[1] = test system: IGROV-1
[2] = test system: HOP-62
[3] = test system: M14
[4] = test system: SW-620
[5] = test system: SNB-75
[6] = test system: SK-MEL-28
[7] = test system: OVCAR-5
[8] = test system: CAKI-1
[9] = test system: HT-29
[10] = test system: SR
[11] = test system: RXF 393
[12] = test system: A549
[13] = test system: SF-268
[14] = test system: SK-MEL-5
[15] = test system: Malme-3M
[16] = test system: EKVX
[17] = test system: SNB-19
[18] = test system: HCC 2998

Measured: GI50

[N-]=[N+]=NC1(Cc2ccccc2)C(=O)c2cccc3c2N(CCC3)C1=O (stereo unspecified)
inactive: [1] > 100 µM | [2] > 100 µM | [3] > 100 µM | [4] > 100 µM | [5] > 100 µM | [6] > 100 µM | [7] > 100 µM | [8] > 100 µM | [9] > 100 µM | [10] > 100 µM | [11] > 100 µM | [12] > 100 µM | [13] > 100 µM | [14] > 100 µM | [15] > 100 µM

CCN1C(=O)N(C)C(O)c2c1nc1ccccn1c2=O (stereo unspecified)
inactive: [1] 32.7 µM | [2] 28.1 µM | [16] 21.2 µM | [3] 32.1 µM | [4] 35.9 µM | [5] 20.6 µM | [6] 27.4 µM | [9] 27.6 µM | [17] 39.4 µM | [10] 29.1 µM | [18] 20.3 µM | [11] 23 µM | [12] 34.2 µM | [13] 25.4 µM | [15] 38.6 µM

CCOC(=O)C1=C(C)N(NC(=O)Nc2ccccc2)C2(N)N(NC(=O)Nc3ccccc3)C(C)=C(C(=O)OCC)C12C(=O)OCC (stereo unspecified)
inactive: [1] > 100 µM | [2] 28.6 µM | [16] > 100 µM | [3] 33.2 µM | [4] 69.7 µM | [5] 25.9 µM | [6] 34.4 µM | [7] > 100 µM | [9] 54.3 µM | [17] 38.9 µM | [10] 34 µM | [18] 27.4 µM | [11] 3.09 µM | [12] 38.3 µM | [13] 24.8 µM | [14] 35.1 µM | [15] 33 µM

CCOC(=O)C1=C(C)N2CCOC2(C)C(C(=O)OC)C1c1cccc(Cl)c1 (stereo unspecified)
inactive: [1] > 100 µM | [2] > 100 µM | [16] > 100 µM | [3] > 100 µM | [4] > 100 µM | [5] > 100 µM | [6] > 100 µM | [7] > 100 µM | [8] > 100 µM | [9] > 100 µM | [17] > 100 µM | [10] > 100 µM | [18] > 100 µM | [12] > 100 µM | [13] > 100 µM | [14] > 100 µM | [15] > 100 µM

O=C(O)C[C@H]1CCCCC12CCOC2=O (stereo partly specified)
inactive: [1] > 100 µM | [2] > 100 µM | [16] > 100 µM | [3] > 100 µM | [4] > 100 µM | [5] > 100 µM | [6] > 100 µM | [7] > 100 µM | [8] > 100 µM | [9] > 100 µM | [17] > 100 µM | [10] > 100 µM | [18] > 100 µM | [11] > 100 µM | [12] > 100 µM | [13] > 100 µM | [14] > 100 µM

Cc1ccc(S(=O)(=O)OC(c2ccc(Cl)cc2Cl)C2OC(=O)c3ccccc32)cc1 (stereo unspecified)
inactive: [1] 97.3 µM | [2] > 100 µM | [16] > 100 µM | [3] > 100 µM | [4] 71.4 µM | [6] > 100 µM | [7] > 100 µM | [9] 38.6 µM | [17] 42.7 µM | [10] 30.6 µM | [11] 67.1 µM | [12] 68.5 µM | [13] 51.3 µM | [14] 53.1 µM | [15] > 100 µM

N#CCc1c(-c2ccccc2)n(S(=O)(=O)c2ccccc2)c2ccccc12
inactive: [1] > 100 µM | [2] 36.1 µM | [3] > 100 µM | [4] > 100 µM | [5] 6.78 µM | [6] > 100 µM | [7] > 100 µM | [8] > 100 µM | [9] > 100 µM | [17] 63.5 µM | [10] 12.2 µM | [18] > 100 µM | [12] > 100 µM | [13] > 100 µM | [14] > 100 µM | [15] > 100 µM

O=C1C2C3C=C4c5ccccc5N(c5ccccc5)C4(C2C(=O)N1c1ccccc1)C1C(=O)N(c2ccccc2)C(=O)C31 (stereo unspecified)
inactive: [1] > 10 µM | [2] > 100 µM | [3] > 100 µM | [4] > 100 µM | [5] 65.8 µM | [6] 8.17 µM | [7] > 100 µM | [8] > 100 µM | [9] 6.56 µM | [17] > 100 µM | [10] 6.35 µM | [18] > 100 µM | [12] > 100 µM | [13] > 100 µM | [15] 7.67 µM

CC(=O)OCC(=O)[C@@]12OC(C)(C)O[C@@H]1C[C@H]1[C@@H]3CC(C=O)=C4C=C(OCCCl)CC[C@]4(C)[C@@]3(F)[C@@H](O)C[C@@]12C [FORMOCORTAL]
inactive: [1] 32.7 µM | [2] 24.8 µM | [16] 10.3 µM | [3] 20.6 µM | [4] 39 µM | [6] 19 µM | [7] 14.3 µM | [9] 12.5 µM | [17] 30.2 µM | [10] 13 µM | [18] 15.3 µM | [11] 5.93 µM | [12] 24.5 µM | [13] 34.9 µM | [15] 23.6 µM

O=C1CCCC2=C1CC1=C(CCCC1=O)N2c1ccc([N+](=O)[O-])cc1
inactive: [1] > 100 µM | [16] > 100 µM | [3] > 100 µM | [4] > 100 µM | [5] > 100 µM | [6] > 100 µM | [7] > 100 µM | [8] > 100 µM | [9] > 100 µM | [17] > 100 µM | [10] > 100 µM | [18] > 100 µM | [11] > 100 µM | [12] > 100 µM | [13] > 100 µM | [14] > 100 µM

O=C1c2c(c3c4ccccc4n4c3c3c2c2ccccc2n3C/C=C\C4)C(=O)N1Cc1ccccc1
inactive: [1] > 100 µM | [2] > 100 µM | [16] > 100 µM | [3] > 100 µM | [4] > 100 µM | [5] 30.2 µM | [6] > 100 µM | [7] > 100 µM | [9] > 100 µM | [17] > 100 µM | [10] > 100 µM | [18] > 100 µM | [11] > 100 µM | [12] > 100 µM | [14] > 100 µM | [15] > 100 µM

COc1ccc(C(=O)C(C(=O)CCC(=O)Nc2cccc(Cl)c2)c2ccc(OC)cc2)cc1 (stereo unspecified)
inactive: [1] > 100 µM | [2] > 100 µM | [16] > 100 µM | [3] > 100 µM | [4] > 100 µM | [5] 61.2 µM | [6] > 100 µM | [7] 9.42 µM | [8] > 100 µM | [9] > 100 µM | [17] > 100 µM | [10] > 100 µM | [18] > 100 µM | [12] > 100 µM | [13] > 100 µM | [14] > 100 µM | [15] > 100 µM
